According to patent US9108921B2, “Therapeutic compounds and compositions” (AGIOS PHARMACEUTICALS, INC, priority 2014, dated 2015):

Experiments:
[1] = biological target: PKR R510Q (Homo sapiens, UniProt P30613, R510Q); assay: PKR Mutant Assay, AC50 against PKR R510Q; format: biochemical; conditions: mutant PKR R510Q enzyme
Method in brief: (§1)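 Steps: compound added to wells, then reaction mix lacking ADP; 60 min room-temperature hold; ADP (0.22-1.65 mM) added to start; A340 monitored at room temperature via PEP/LDH/NADH coupling. Top final compound concentration 100 μM, 3-fold dilutions over 11 points.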

[2] = biological target: T1, PKR WT (Homo sapiens, UniProt P30613); assay: PKR WT cell based AC50 assay; conditions: wild type PKR
[3] = biological target: T1, PKR WT; assay: PKR WT enzymatic AC50 assay; format: biochemical; conditions: wild type PKR
Method in brief: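 Human PKR (WT or mutant, 80-400 ng/well) in 50 mM Tris pH 7.5, 100 mM KCl, 5 mM MgCl2, 1 mM DTT, 0.03% BSA with PEP 0.1-0.5 mM, NADH 180 uM and LDH, preincubated 60 min at room temperature with compound (11-point 3-fold series from 100 μM final, 1% DMSO). ADP 0.22-1.65 mM started reaction; A340 followed.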

[4] = biological target: PKR R532W (Homo sapiens, UniProt P30613, R532W); assay: PKR Mutant Assay, AC50 against PKR R532W; format: biochemical; conditions: mutant PKR R532W enzyme
Method in brief: as §1

PKR R532W, sequence (P30613 whole entry R532W): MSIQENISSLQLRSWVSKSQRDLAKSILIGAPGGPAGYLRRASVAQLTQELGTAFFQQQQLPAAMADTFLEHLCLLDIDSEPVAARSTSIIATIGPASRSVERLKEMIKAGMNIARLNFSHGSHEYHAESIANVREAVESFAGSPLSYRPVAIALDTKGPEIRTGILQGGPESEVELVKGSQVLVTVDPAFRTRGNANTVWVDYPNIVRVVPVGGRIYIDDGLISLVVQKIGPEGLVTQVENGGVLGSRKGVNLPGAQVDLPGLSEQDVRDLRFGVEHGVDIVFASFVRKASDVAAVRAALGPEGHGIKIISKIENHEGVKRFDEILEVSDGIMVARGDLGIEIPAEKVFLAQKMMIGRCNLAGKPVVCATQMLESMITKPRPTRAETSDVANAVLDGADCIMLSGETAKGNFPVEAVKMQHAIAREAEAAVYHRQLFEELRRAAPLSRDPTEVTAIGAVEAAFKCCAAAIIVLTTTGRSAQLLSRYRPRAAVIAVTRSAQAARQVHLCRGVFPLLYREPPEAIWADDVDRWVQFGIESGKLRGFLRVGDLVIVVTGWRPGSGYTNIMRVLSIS
PKR R510Q, sequence (P30613 whole entry R510Q): as the sequence (P30613 whole entry R532W) above, with R510Q, W532R counted along it
T1 sequence (P30613 whole entry): as the sequence (P30613 whole entry R532W) above, with W532R counted along it

What does the source list for `CC(C)CC1(O)CCN(C(=O)c2ccc(NS(=O)(=O)c3cccc4c3OCO4)cc2)CC1` [Compound 423]?
AC50 [1]: 101 to 1000 nM; AC50 [2]: < 100 nM; AC50 [3]: < 100 nM; AC50 [4]: < 100 nM

With `O=C(c1ccc(NS(=O)(=O)c2cccc3c(O)ncnc23)cc1)N1CCC(O)(/C=C/CC(F)(F)F)CC1` [Compound 424] as the compound, how does the AC50 [1] read?
Its AC50 is < 100 nM.

And the AC50 [2]?
Its AC50 is 101 to 1000 nM.

And the AC50 [3]?
Its AC50 is < 100 nM.

What about the AC50 [4] of the same compound?
Its AC50 is 101 to 1000 nM.

`Nc1nc2c(S(=O)(=O)Nc3ccc(C(=O)N4CCC(O)(/C=C/CC(F)(F)F)CC4)cc3)cccc2s1` [Compound 425] was tested. Which AC50 [1] did it give?
The AC50 was < 100 nM.

And the AC50 [2]?
Its AC50 is < 100 nM.

What about the AC50 [3] of the same compound?
Its AC50 is < 100 nM.

What about the AC50 [4] of the same compound?
Its AC50 is 101 to 1000 nM.

With `O=C(c1ccc(NS(=O)(=O)c2cccc3c(O)ncnc23)cc1)N1CCC(O)(CCC(F)(F)F)CC1` [Compound 426] as the compound, how does the AC50 [1] read?
The AC50 was 101 to 1000 nM.

And the AC50 [2]?
The AC50 was 101 to 1000 nM.

What about the AC50 [3] of the same compound?
Its AC50 is 101 to 1000 nM.

And the AC50 [4]?
The AC50 was 101 to 1000 nM.

Which results are given for `O=C(c1ccc(NS(=O)(=O)c2cccc3c(O)ncnc23)cc1)N1CCC(O)(CCCC(F)(F)F)CC1` [Compound 427]?
AC50 [1]: < 100 nM; AC50 [2]: < 100 nM; AC50 [3]: < 100 nM; AC50 [4]: < 100 nM

Which AC50 [1] does the source give for `O=C(c1ccc(NS(=O)(=O)c2cccc3c(O)ncnc23)cc1)N1CCC(O)(c2cccc(F)c2F)CC1` [Compound 428] here?
The AC50 was 101 to 1000 nM.

And the AC50 [2]?
Its AC50 is < 100 nM.

And the AC50 [3]?
The AC50 was < 100 nM.

What about the AC50 [4] of the same compound?
The AC50 was < 100 nM.

For `CC(CC1(O)CCN(C(=O)c2ccc(NS(=O)(=O)c3cccc4sc(N)nc34)cc2)CC1)C(F)(F)F` (stereo not shown) [Compound 429], which AC50 [1] is on record?
The AC50 was < 100 nM.

And the AC50 [2]?
The AC50 was < 100 nM.

What about the AC50 [3] of the same compound?
Its AC50 is < 100 nM.

And the AC50 [4]?
Its AC50 is < 100 nM.

Which AC50 [1] does the source give for `Nc1nc2c(S(=O)(=O)Nc3ccc(C(=O)N4CCC(O)(CCC(F)(F)F)CC4)cc3)cccc2s1` [Compound 430] here?
The AC50 was 101 to 1000 nM.

What about the AC50 [2] of the same compound?
Its AC50 is 101 to 1000 nM.

And the AC50 [3]?
The AC50 was < 100 nM.

What about the AC50 [4] of the same compound?
Its AC50 is < 100 nM.

For `CC(CC1(O)CCN(C(=O)c2ccc(NS(=O)(=O)c3cccc4c(O)ncnc34)cc2)CC1)C(F)(F)F` (stereo not shown) [Compound 431], which AC50 [1] is on record?
Its AC50 is < 100 nM.

And the AC50 [2]?
The AC50 was 101 to 1000 nM.

What about the AC50 [3] of the same compound?
Its AC50 is < 100 nM.

And the AC50 [4]?
Its AC50 is < 100 nM.

For `O=C(c1ccc(NS(=O)(=O)c2cccc3scnc23)cc1)N1CCC(O)(CC2CC2(F)F)CC1` (stereo not shown) [Compound 432], which AC50 [1] is on record?
Its AC50 is 101 to 1000 nM.

And the AC50 [2]?
Its AC50 is 101 to 1000 nM.

What about the AC50 [3] of the same compound?
The AC50 was < 100 nM.

And the AC50 [4]?
The AC50 was < 100 nM.

Which results are given for `Cn1nccc1CC1(O)CCN(C(=O)c2ccc(NS(=O)(=O)c3cccc4scnc34)cc2)CC1` [Compound 433]?
AC50 [1]: 101 to 1000 nM; AC50 [2]: 101 to 1000 nM; AC50 [3]: 101 to 1000 nM; AC50 [4]: < 100 nM

What does the source list for `Cn1cc(CC2(O)CCN(C(=O)c3ccc(NS(=O)(=O)c4cccc5scnc45)cc3)CC2)cn1` [Compound 434]?
AC50 [1]: 101 to 1000 nM; AC50 [2]: 101 to 1000 nM; AC50 [3]: 101 to 1000 nM; AC50 [4]: < 100 nM

With `CC(F)(F)CCC1(O)CCN(C(=O)c2ccc(NS(=O)(=O)c3cc(F)cc4sc(N)nc34)cc2)CC1` [Compound 435] as the compound, how does the AC50 [1] read?
The AC50 was < 100 nM.

And the AC50 [2]?
The AC50 was 101 to 1000 nM.

What about the AC50 [3] of the same compound?
Its AC50 is < 100 nM.

And the AC50 [4]?
The AC50 was < 100 nM.

Which AC50 [1] does the source give for `CC(F)(F)CCC1(O)CCN(C(=O)c2ccc(NS(=O)(=O)c3cccc4nccnc34)cc2OC(F)F)CC1` [Compound 436] here?
Its AC50 is 101 to 1000 nM.

And the AC50 [2]?
Its AC50 is 101 to 1000 nM.

What about the AC50 [3] of the same compound?
The AC50 was 101 to 1000 nM.

And the AC50 [4]?
The AC50 was < 100 nM.

For `CC(C)CC1(O)CCN(C(=O)c2ccc(NS(=O)(=O)c3cccc4ncc(N)nc34)cc2)CC1` [Compound 437], which AC50 [1] is on record?
The AC50 was < 100 nM.

What about the AC50 [2] of the same compound?
Its AC50 is < 100 nM.

And the AC50 [3]?
Its AC50 is < 100 nM.

What about the AC50 [4] of the same compound?
The AC50 was < 100 nM.

For `CC(C)CC1(O)CCN(C(=O)c2ccc(NS(=O)(=O)c3cccc4nc(N)cnc34)cc2)CC1` [Compound 439], which AC50 [1] is on record?
Its AC50 is < 100 nM.

And the AC50 [2]?
Its AC50 is < 100 nM.

What about the AC50 [3] of the same compound?
The AC50 was < 100 nM.

What about the AC50 [4] of the same compound?
Its AC50 is < 100 nM.
